What was measured:
SAMD9 promoter [1] = test: Dual luciferase reporter assay in HeLa cells transiently transfected with SAMD9 promoter construct; format: cell-based, human; details: transient transfection, IFN-γ 10 ng/ml, 48 hours after transfection (FIG. 1A)
Description: SAMD9 promoter fragments cloned into pGL3 as previously described [Hershkovitz, D. et al. (2011) J Invest Dermatol 131: 662-9], were digested with KpnI and XhoI and subcloned into pGL4.17 [luc2/Neo] (Promega). The expression vector pGL4.17 encodes the luciferase reporter gene luc2 (Photinuspyralis) and contains a mammalian selectable marker for neomycin resistance. For transient transfection, SAMD9 promoter-luciferase constructs were transfected into HeLa cells using lipofectamine 2000 (Invitrogen, Carlsbad, CA) according to the manufacturer's instructions.
Cellular protein was extracted by adding 20 μl of Promega Lysis Buffer (PLB) (Promega) to each sample and incubated for a period of 15 minutes. Cell lysate was analyzed in a 96-well flat white plate (Greiner Bio-One, United Kingdom) where 100 μl of Luciferase Assay Reagent II (LAR II) (Promega) was added to each sample. Luminescence was ascertained using the Infinite M200 multimode microplate reader (Tecan Ltd, Minnedorf, Switzerland). After the initial reading, 100 μl of Stop & GloR Reagent (Promega) were dispensed into tested wells and Renilla luciferase levels were tested. The assay was completed after Luciferase levels were normalized to Renilla levels.
SAMD9 promoter activity was first analyzed using a luciferase reporter assay in HeLa cells. […]

SAMD9 promoter [2] = test: High-throughput luciferase reporter screen in HeLa line stably expressing 585 bp SAMD9 promoter fragment; format: cell-based, human; details: IFN-γ 10 ng/ml for 24 hours (FIG. 1B)

IFN-γ: interferon-gamma, previously identified as a strong inducer of SAMD9 expression
SAMD9 promoter activity (luciferase) (SAMD9 promoter [1]): significantly induced
Response of stable SAMD9 promoter-luciferase HeLa cell line (SAMD9 promoter [2]): respond robustly
